Assay results: ChEMBL document CHEMBL1201862, “PubChem BioAssay data set” (2004)
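Protocol summary: plate cells (96-well), add compound at 5 concentrations, incubate 48 h, interpolate endpoints linearly. GI50 = concentration required for 50% inhibition of growth.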 Calls of active or inactive are those of the source. No stated cut-off is given here; in the data, active = GI50 up to about 1.1 µM and inactive = higher.

Key:
Test in all cases: NCI tumour cell line growth inhibition, 48 h
SNB-75 = system: SNB-75
RXF 393 = system: RXF 393
NCI/ADR-RES = system: NCI/ADR-RES
U-251 = system: U-251
TK-10 = system: TK-10
MDA-MB-231 = system: MDA-MB-231
CAKI-1 = system: CAKI-1
SR = system: SR
IGROV-1 = system: IGROV-1
BT-549 = system: BT-549
HCT-15 = system: HCT-15
SK-MEL-28 = system: SK-MEL-28
SN12C = system: SN12C
LOX IMVI = system: LOX IMVI
M14 = system: M14
MDA-MB-435 = system: MDA-MB-435
SK-OV-3 = system: SK-OV-3
RPMI-8226 = system: RPMI-8226
HL-60 = system: HL-60

SMILES | GI50 (SNB-75) | GI50 (RXF 393) | GI50 (NCI/ADR-RES) | GI50 (U-251) | GI50 (TK-10) | GI50 (MDA-MB-231) | GI50 (CAKI-1) | GI50 (SR) | GI50 (IGROV-1) | GI50 (BT-549) | GI50 (HCT-15) [µM] | GI50 (SK-MEL-28) | GI50 (SN12C) | GI50 (LOX IMVI) | GI50 (M14) | GI50 (MDA-MB-435) | GI50 (SK-OV-3) | GI50 (RPMI-8226) | GI50 (HL-60)
O=C(O)CSc1nc2ccccc2[nH]1 | > 100 µM (inactive) | > 100 µM (inactive) | > 100 µM (inactive) | > 100 µM (inactive) | > 100 µM (inactive) | > 100 µM (inactive) | > 100 µM (inactive) | > 100 µM (inactive) | > 100 µM (inactive) | > 100 µM (inactive) | > 100 | > 100 µM (inactive) | > 100 µM (inactive) | > 100 µM (inactive) | > 100 µM (inactive) | > 100 µM (inactive) |  |  | 
Cc1ccc(S(=O)(=O)N/N=C2\C(=O)Nc3cc(O)c(C(=O)O)cc32)cc1 | > 100 µM (inactive) | > 100 µM (inactive) | > 100 µM (inactive) | > 100 µM (inactive) | > 100 µM (inactive) | > 100 µM (inactive) | > 100 µM (inactive) | > 100 µM (inactive) | > 100 µM (inactive) | > 100 µM (inactive) | > 100 | > 100 µM (inactive) | > 100 µM (inactive) | > 100 µM (inactive) | > 100 µM (inactive) | > 100 µM (inactive) | > 100 µM (inactive) | > 100 µM (inactive) | 
CCOC(=O)Cc1[nH]c(C(=O)c2ccccc2)cc1C(=O)c1ccccc1 | 59.8 µM (inactive) | 24.3 µM (inactive) | > 100 µM (inactive) | > 100 µM (inactive) | 36 µM (inactive) | > 10 µM (inactive) |  | 38.4 µM (inactive) | > 10 µM (inactive) | 20.6 µM (inactive) | 68.7 | > 10 µM (inactive) | > 100 µM (inactive) | 22.2 µM (inactive) | 88.1 µM (inactive) | 13.8 µM (inactive) | > 100 µM (inactive) | > 10 µM (inactive) | 33.1 µM (inactive)
C=C(C)c1cc(C(C)(C)C)cc(C(=C)C)c1S(C)(=O)=O | > 100 µM (inactive) |  | > 100 µM (inactive) | > 100 µM (inactive) | > 100 µM (inactive) | 3.91 µM (inactive) | > 100 µM (inactive) | > 100 µM (inactive) | > 100 µM (inactive) | > 100 µM (inactive) | > 100 | > 100 µM (inactive) | > 100 µM (inactive) | > 100 µM (inactive) | > 100 µM (inactive) | > 100 µM (inactive) | > 100 µM (inactive) | > 100 µM (inactive) | > 100 µM (inactive)
Cc1c2c(n3c(nc4ccccc43)c1C#N)SCC2 | > 10 µM (inactive) |  | > 10 µM (inactive) | > 10 µM (inactive) | > 10 µM (inactive) | > 10 µM (inactive) | > 10 µM (inactive) | > 10 µM (inactive) | > 10 µM (inactive) | > 10 µM (inactive) | > 10 | > 10 µM (inactive) | > 10 µM (inactive) | > 10 µM (inactive) | > 10 µM (inactive) | > 10 µM (inactive) | > 10 µM (inactive) | > 10 µM (inactive) | > 10 µM (inactive)
O=C1N(C2CCCCC2)C(=O)N1C1CCCCC1 | 0.142 µM (active) |  | 0.133 µM (active) | 0.388 µM (active) | 2.34 µM (inactive) | 1.33 µM (inactive) | 1.04 µM (active) | 0.232 µM (active) | 17.5 µM (inactive) | 0.0272 µM (active) | 0.257 | 1.19 µM (inactive) | 0.272 µM (active) | 0.209 µM (active) | 1.24 µM (inactive) | 2.08 µM (inactive) | 5.15 µM (inactive) |  | < 0.01 µM (active)
CCCCCCC(=O)O[C@H]1CC[C@H]2[C@@H]3CCC4C/C(=N/NC(=O)c5cccc6c(=O)c7ccccc7[nH]c56)C=C(C)[C@]4(C)[C@H]3CC[C@]12C (some centres not stated) | > 25 µM (inactive) |  | > 25 µM (inactive) | > 25 µM (inactive) | > 25 µM (inactive) | > 25 µM (inactive) | > 25 µM (inactive) | > 25 µM (inactive) | > 25 µM (inactive) | > 25 µM (inactive) | > 25 |  | > 25 µM (inactive) | > 25 µM (inactive) | > 25 µM (inactive) | > 25 µM (inactive) | > 25 µM (inactive) | > 25 µM (inactive) | > 25 µM (inactive)
